Our source for the inhibition and inhibition in vivo values is US12559505B2, “IDH mutant inhibitor and use thereof” (WIGEN BIOMEDICINE TECHNOLOGY (SHANGHAI) CO., LTD., priority 2020, dated 2026).

In one assay the target is T1, IDH R132C (Homo sapiens, UniProt O75874, R132C).
T1 construct: expressed in transfected cells; host or cells: U87 cells
As to the kind of experiment: Detection of 2-HG in supernatant of U87-IDH R132C cells. It counts as cell-based. The settings on record: 72 h, LC-MS-MS, vs control; for inhibition at 0.001 µM: 1 nM compound, read-out: Inhibition rate of compounds on 2-HG in the supernatant of U87-IDH R132C cells, 1 nM; for inhibition at 0.01 µM: 10 nM compound, read-out: Inhibition rate of compounds on 2-HG in the supernatant of U87-IDH R132C cells, 10 nM; for inhibition at 0.1 µM: 100 nM compound, read-out: Inhibition rate of compounds on 2-HG in the supernatant of U87-IDH R132C cells, 100 nM. The protocol: U87 cells overexpressing the IDH R132C mutation were seeded in a 48-well plate at 50,000 cells/well. After the cells were incubated overnight for adhesion, the supernatant was removed. The cell culture media containing serially diluted compounds were added, and the cells were incubated for 72 h. After 72 h, the cultures were collected and diluted 10-fold with water, and acetonitrile was added to extract the metabolites. The 2-HG content in the cultures was analyzed by LC-MS-MS, and the percentage inhibition of compounds on 2-HG in the supernatant was calculated as compared with the control.

The subject of assay [1] is 2-HG in HT1080 tumor tissues. As to the kind of experiment: Detection of 2-HG in HT1080 tumor tissues of nude mice. It counts as in vivo. The settings on record: Mus musculus, HT-1080, sc, subcutaneous HT1080, 20 mg/kg. The protocol:
Nude mice were inoculated subcutaneously with 1×10^6 HT1080 cells. When the tumor volume reached 100-150 mm^3, the mice were randomly grouped into solvent control group and compounds 1, 70, 79, 85, 96, 139, 157 and LY-3410738 20 mg/kg groups. The tumors were collected three days and seven days after continuous administration, weighed, digested with a digestion solution and then homogenized. The level of 2-HG in the tumor tissues were determined by LC-MS-MS. The percentage inhibition of compounds on 2-HG in tumor tissues was calculated as compared with the control.

The mark [2] stands for this setting: 72 h, three days of continuous administration, read-out: Inhibition rate of compounds on 2-HG in HT1080 tumor tissues, 3 days.
[3] abbreviates: 168 h, seven days of continuous administration, read-out: Inhibition rate of compounds on 2-HG in HT1080 tumor tissues, 7 days.

SMILES strings stand for the structures. Read-outs that look alike come from different tables or passages of the source.

T1 sequence (O75874 whole entry R132C): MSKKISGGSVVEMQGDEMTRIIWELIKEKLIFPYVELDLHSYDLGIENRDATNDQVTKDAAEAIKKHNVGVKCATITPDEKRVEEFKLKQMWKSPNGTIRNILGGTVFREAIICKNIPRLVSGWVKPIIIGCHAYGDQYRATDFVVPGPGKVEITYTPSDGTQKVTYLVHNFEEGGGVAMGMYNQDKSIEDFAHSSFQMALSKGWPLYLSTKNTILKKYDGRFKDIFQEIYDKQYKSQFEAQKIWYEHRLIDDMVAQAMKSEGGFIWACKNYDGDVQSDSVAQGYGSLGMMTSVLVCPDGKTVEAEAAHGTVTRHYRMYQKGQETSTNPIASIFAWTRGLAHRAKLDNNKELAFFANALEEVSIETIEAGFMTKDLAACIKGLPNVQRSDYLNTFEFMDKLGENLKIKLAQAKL

The inhibition is how much of the control response was suppressed. Consider `C=CC(=O)N1CCN([C@@H](CC2CC2)c2ccc([C@H](C)Nc3ncc4c(n3)N(CC)C(=O)OC4)cc2)CC1` [LY-3410738, reference compound], for which, on IDH R132C, the inhibition at 0.001 µM was 30 to 60%, the inhibition at 0.01 µM was > 90% and the inhibition at 0.1 µM is > 90%. Besides, in assay [1] (setting [2]), the inhibition in vivo at 20 mg/kg amounted to 58 ± 11%. Further, in assay [1] (setting [3]), the inhibition in vivo at 20 mg/kg stood at 88 ± 12%.

Consider `C=CC(=O)NC1CCN(C(CC2CC2)c2ccc([C@H](C)Nc3ncc4cnc(=O)n(C(C)C)c4n3)cc2)CC1` (stereo partly shown) [Compound 96], for which the inhibition in vivo at 20 mg/kg in assay [1] (setting [2]) came to 29 ± 38%; in assay [1] (setting [3]), 78 ± 4%.

Take `C=CC(=O)N1CCN(C(CC2CC2)c2ccc([C@H](C)Nc3ncc4c(n3)N(C(C)C)C(=O)NC4)cc2)CC1` (stereo partly shown) [Compound 79]: at IDH R132C, the inhibition at 0.001 µM was in the range of 30 to 60%, the inhibition at 0.01 µM was 60 to 90% and the inhibition at 0.1 µM is > 90%. In addition, the inhibition in vivo at 20 mg/kg in assay [1] (setting [2]) is 50 ± 3%. For the same compound, the inhibition in vivo at 20 mg/kg in assay [1] (setting [3]) stood at 97 ± 1%.

Consider `C=CC(=O)N1CCN(C(CC23CC(C2)C3)c2ccc([C@H](C)Nc3ncc4c(n3)N(CC)C(=O)OC4)cc2)CC1` (stereo partly shown) [Compound 157], for which, at IDH R132C, the inhibition at 0.001 µM fell in the range of 60 to 90%, the inhibition at 0.01 µM is > 90% and the inhibition at 0.1 µM was > 90%. Also, in assay [1] (setting [2]), the inhibition in vivo at 20 mg/kg stood at 60 ± 8%. Moreover, the inhibition in vivo at 20 mg/kg in assay [1] (setting [3]) was 90 ± 7%.

Turning to `C=CC(=O)N1CCN(C(CC2CC2)c2ccc([C@H](C)Nc3ncc4cnc(=O)n(C(C)C)c4n3)cc2)CC1` (stereo partly drawn) [Compound 85, 7-(((1S)-1-(4-(1-(4-acryloylpiperazin-1-yl)-2-cyclopropylethyl)phenyl)ethyl)amino)-1-isopropylpyrimidine[4,5-d]pyrimidine-2(1H)-one], on IDH R132C, the inhibition at 0.001 µM fell in the range of 60 to 90%, the inhibition at 0.01 µM is > 90% and the inhibition at 0.1 µM is > 90%. Besides, the inhibition in vivo at 20 mg/kg in assay [1] (setting [2]) was found to be 57 ± 6%. The inhibition in vivo at 20 mg/kg in assay [1] (setting [3]) is 94 ± 3%.

Consider `C=CC(=O)N1CC2(C1)CN(C(CC1CC1)c1ccc([C@H](C)Nc3ncc4c(n3)N(CC)C(=O)OC4)cc1)C2` (stereo partly shown) [Compound 1], for which, on IDH R132C, the inhibition at 0.001 µM is 30 to 60%, the inhibition at 0.01 µM was > 90% and the inhibition at 0.1 µM is > 90%. Moreover, in assay [1] (setting [2]), the inhibition in vivo at 20 mg/kg is 54 ± 18%. For the same compound, the inhibition in vivo at 20 mg/kg in assay [1] (setting [3]) stood at 95 ± 0.5%.

As for `C=CC(=O)N1CCN(C(CC23CC(C2)C3)c2ccc([C@H](C)Nc3ncc4c(n3)N(CC)C(=O)NC4)cc2)CC1` (stereo partly shown) [Compound 70], on IDH R132C, the inhibition at 0.001 µM lay in the range of 60 to 90%, the inhibition at 0.01 µM was > 90% and the inhibition at 0.1 µM is > 90%. Further, the inhibition in vivo at 20 mg/kg in assay [1] (setting [2]) was 62 ± 8%. Besides, the inhibition in vivo at 20 mg/kg in assay [1] (setting [3]) worked out at 92 ± 5%.

With `C=CC(=O)N1CCN(C(CC2CCC2)c2ccc([C@H](C)Nc3ncc4c(n3)N(CC)C(=O)OC4)cc2)CC1` (stereo partly drawn) [Compound 139, 7-(((1S)-1-(4-(1-(4-acryloylpiperazin-1-yl)-2-cyclobutylethyl)-phenyl)ethyl)amino)-1-ethyl-1,4-dihydro-2H-pyrimido[4,5-d][1,3]oxazin-2-one], the inhibition in vivo at 20 mg/kg was 57 ± 1.8% in assay [1] (setting [2]) and 99 ± 0.4% in assay [1] (setting [3]).

Regarding `C=CC(=O)N1CC2(C1)CN(C(CC1CC1)c1ccc([C@H](C)Nc3ncc4cnc(=O)n(C(C)C)c4n3)cc1)C2` (stereo partly shown) [Compound 86], on IDH R132C, the inhibition at 0.001 µM lay within 60 to 90%, the inhibition at 0.01 µM was 60 to 90% and the inhibition at 0.1 µM was > 90%.

For the compound `C=CC(=O)N1CCN(C(CC2(C)CC2)c2ccc([C@H](C)Nc3ncc4cnc(=O)n(CC)c4n3)cc2)CC1` (stereo partly shown) [Compound 131], at IDH R132C, the inhibition at 0.001 µM is 60 to 90%, the inhibition at 0.01 µM is > 90% and the inhibition at 0.1 µM was > 90%.

In the case of `C=CC(=O)N1CCN(C(CC2CCC2)c2ccc([C@H](C)Nc3ncc4c(n3)N(C(C)C)C(=O)OC4)cc2)CC1` (stereo partly shown) [Compound 143], on IDH R132C, the inhibition at 0.001 µM was 30 to 60%, the inhibition at 0.01 µM lay within 60 to 90% and the inhibition at 0.1 µM was > 90%.
